Data from paper PMC10295794, “Pharmacokinetic Analysis of Zonarol, a Marine Algal Hydroquinone, in Mice Using HPLC with Fluorescence Detection” (Antibiotics, 2023).
Where two headings read alike, the source gives them in different places.

Tests used:
[1] = Plasma concentration of zonarol after oral or intravenous administration in mice (HPLC-FI, non-compartmental analysis); type: in vivo; conditions: for time within which plasma concentration remained over the LOQ: LOQ 11.1 ng/mL
Protocol: (§1) HPLC analysis was carried out on a Shimadzu-20A series instrument (Shimadzu, Japan) connected to a fluorescence detector (RF-10A xl, Shimadzu, Japan). The signals from the fluorescence system were transmitted to LC Solution software for the purposes of analyzing and calculating the peak areas. Chromatographic separation was carried out on an RPAQUEOUS-AR-5 (4.6 × 250 mm) column. The HPLC was operated with a gradient mobile phase system consisting of water containing 0.1% formic acid (phase A) and methanol (phase B) at a flow rate of 1 mL/min. The pump was programmed as follows: phase B was maintained at 40% for the first 5 min, increased from 40% to 80% within the next 25 min, maintained at 80% for the next 10 min, increased to 100% for 10 min, and then decreased back to 40% for 10 min (total gradient time: 60 min). A 50 μL sample was injected into the system with the auto-sampler and conditioned at 4 °C, and the column temperature was maintained at 30 °C.
Male ddY mice (8 weeks old, 40 ± 2 g) were purchased from SLC Inc. (Shizuoka, Japan) and were acclimated to laboratory conditions for 1 week before experiment. The mice were housed in an air-conditioned room at 23 ± 2 °C with 12 h/12 h light–dark illumination cycles at a constant humidity (55 ± 10%) with free access to food (MR stock, Nosan, Japan) and tap water. Exsanguination and autopsy were performed under anesthesia with an overdose of isoflurane (Mylan EPD Ltd., Canonsburg, PA, USA). All procedures were reviewed and approved (R3-9 and R4-2) in terms of animal welfare by the Animal Ethics Committee of Tokyo University of Marine Science and Technology.
The mice were fasted for 12 h before the oral administration of zonarol. Blood samples were collected from the mouse tails at 15, 30, 45, 60, 90, 120, 240, and 480 min after the oral administration of 100 mg/kg of zonarol (n = 5).
The mice were not fasted before the intravenous administration of zonarol but were fasted after the test started. Blood samples were collected from the mouse tails, via the caudal veins, at 5, 15, 30, 45, 60, 90, 120, and 240 min after the intravenous administration of 10 mg/kg of zonarol (n = 6).
Blood samples were immediately centrifuged at 9000 rpm for 5 min. After centrifugation, a 20 μL aliquot of plasma was mixed with 80 μL of MeCN for deproteinization. Then, the mixture was centrifuged at 9000 rpm for 5 min, and the supernatant was used for HPLC analysis.
Data were expressed as the mean ± standard deviation (SD) for the in vitro and the animal experiments. The number of the data is described for each experiment. The pharmacokinetic parameters were calculated with Phoenix Winnonlin software (version 8.1) while using a non-compartmental model. The abnormal data were eliminated after being analyzed via a Box-type drawing with SPSS software (SPSS Inc., Chicago, IL, USA).

[2] = Tissue distribution of zonarol after intravenous administration in mice; type: in vivo; conditions: for concentration at 30 min / concentration at 15 min: mouse, iv, 10 mg/kg; for concentration at 30 min: brain; for concentration at 15 min: 15 min after administration
Protocol: as §1
Blank tissue homogenates were prepared by collecting the liver, kidney, and brain from normal mice after anesthetization. Blank tissue homogenates were used to determine the specificity of zonarol. In the experimental mice, the livers, kidneys, and brains were collected at 15, 30, 60, 120 min after the intravenous administration, via the caudal veins, of 10 mg/kg of zonarol (n = 7). The tissue with added distilled water (mass/volume = 1:4) was homogenized.
Next, a 50 μL of tissue homogenate was mixed with 200 μL of MeCN for deproteinization. Then, the mixture was centrifuged at 9000 rpm for 5 min, and the supernatant was used for HPLC analysis.

[3] = Stability of zonarol with mice plasma during HPLC analysis; type: in vitro ADME
Protocol: as §1
The stability of low, medium, and high concentrations of 20, 80, and 320 ng/mL of zonarol mixed with the plasma of mice was performed under different conditions, including storage at room temperature for 4 h, storage at 37 °C for 4 h, and storage at 4 °C for 12 h and subjection to three freeze–thaw cycles. Next, 20 μL aliquots of low, medium, and high concentration zonarol solutions ([…]) were added to polypropylene tubes with 80 μL of blank plasma. Then, 900 μL of MeCN was added to the mixture, after being incubated under the different conditions described above, for deproteinization. The final nominal concentrations of zonarol were 20, 80, and 320 ng/mL. After deproteinization, the mixtures were centrifuged at […] for 5 min, and the supernatants were used for HPLC analysis. The accuracy of the assay was determined by comparing the nominal concentrations with the corresponding calculated concentrations via linear regression. Every concentration of zonarol was measured three times.

[4] = tested on: carrageenan-induced paw edema; test: Carrageenan-induced paw edema in mice after oral bolus zonarol; type: in vivo; conditions: estimated from current p.o. 100 mg/kg plasma data and earlier 62.5 mg/kg edema result (ref 16)
[5] = tested on: carrageenan-induced paw edema; parameters: method as in PMID 25409433; conditions: mice, oral bolus 62.5 mg/kg at −0.5 h; edema at 2 and 4 h after carrageenan; cited from earlier work
[6] = tested on: DSS-induced ulcerative colitis; parameters: method as in PMID 25409433; conditions: mice, oral 10 mg/kg/day for 2 weeks; cited from earlier work
diet-induced NAFLD = tested on: diet-induced NAFLD; parameters: method as in PMID 34684455; conditions: mice, oral 10 mg/kg/day for 2 weeks; cited from earlier work
[7] = cited from earlier work
[8] = cited from earlier work; remark: listed apart in the source
[9] = male, ddY, mouse, plasma, po, p.o. 100 mg/kg, n = 5, mean ± SD
[10] = storage at 4 °C for 12 h, prepared 20 ng/mL
[11] = storage at 4 °C for 12 h, prepared 80 ng/mL
[12] = storage at 4 °C for 12 h, prepared 320 ng/mL
[13] = storage at 37 °C for 4 h, prepared 20 ng/mL
[14] = storage at 37 °C for 4 h, prepared 80 ng/mL
[15] = storage at 37 °C for 4 h, prepared 320 ng/mL
[16] = storage at RT for 4 h, prepared 20 ng/mL
[17] = storage at RT for 4 h, prepared 80 ng/mL
[18] = storage at RT for 4 h, prepared 320 ng/mL
[19] = three cycles of freeze-thaw, prepared 20 ng/mL
[20] = three cycles of freeze-thaw, prepared 80 ng/mL
[21] = three cycles of freeze-thaw, prepared 320 ng/mL

C=C1CC[C@@H]2C(C)(C)CCC[C@@]2(C)[C@@H]1Cc1cc(O)ccc1O [zonarol]
time within which plasma concentration remained over the LOQ ([1]; i.v. 10 mg/kg): ≤ 240 min
AUC(0-t) ([1]; male, ddY, mouse, plasma, iv, i.v. 10 mg/kg, 0 to 240 min, n = 6, mean ± SD, read-out: AUC (AUC0-240) (converted)): 608 ng·h/mL
concentration at 5 min ([1]; male, ddY, mouse, plasma, iv, i.v. 10 mg/kg, 5 min): 878 ± 371 ng/mL
bioavailability ([1]; male, ddY, mouse, plasma, oral, (p.o. AUC/p.o. dose)/(i.v. AUC/i.v. dose) × 100, p.o. 100 mg/kg, i.v. 10 mg/kg): 25%
AUC(0-t) ([1]; male, ddY, mouse, plasma, po, p.o. 100 mg/kg, 0 to 480 min, n = 5, mean ± SD, read-out: AUC (AUC0-480) (converted)): 1520 ng·h/mL
Cmax [1, 9]: 723 ± 75.9 ng/mL
Tmax [1, 9]: 1.25 h
time within which plasma concentration remained over the LOQ ([1]; p.o. 100 mg/kg): ≤ 480 min
tissue/body weights (g/g) and visual observation of each tissue vs. mice without bolus treatment ([2]; i.v. 10 mg/kg bolus, data not shown): did not reflect any marked differences
concentration at 30 min ([2]; bolus i.v. 10 mg/kg BW, 30 min, read-out: maximal distribution of zonarol in the brain): 2520 ± 1330 ng/g
concentration at 30 min ([2]; i.v. 10 mg/kg, 30 min after administration, n = 7, mean ± SD, read-out: zonarol content in brain (peak)): 2530 ± 1330 ng/g
concentration at 15 min ([2]; kidney, i.v. 10 mg/kg, n = 7, mean ± SD, read-out: zonarol content in kidney (highest)): 1910 ± 1800 ng/g
concentration at 15 min ([2]; liver, i.v. 10 mg/kg, n = 7, mean ± SD, read-out: zonarol content in liver (highest)): 1320 ± 1040 ng/g
accuracy of each group (plasma stability) ([3]; all storage conditions and concentrations of Table 2): 90.8–112.9%
Accuracy (detected/prepared × 100) [3, 10]: 104.9%
Zonarol detected in plasma [3, 10]: 21.0 ± 1.33 ng/mL
Accuracy (detected/prepared × 100) [3, 11]: 92.3%
Zonarol detected in plasma [3, 11]: 73.8 ± 1.98 ng/mL
Accuracy (detected/prepared × 100) [3, 12]: 104.4%
Zonarol detected in plasma [3, 12]: 334.2 ± 10.70 ng/mL
Accuracy (detected/prepared × 100) [3, 13]: 105.8%
Zonarol detected in plasma [3, 13]: 21.2 ± 0.33 ng/mL
Accuracy (detected/prepared × 100) [3, 14]: 90.8%
Zonarol detected in plasma [3, 14]: 72.6 ± 0.53 ng/mL
Accuracy (detected/prepared × 100) [3, 15]: 95.2%
Zonarol detected in plasma [3, 15]: 304.6 ± 6.57 ng/mL
Accuracy (detected/prepared × 100) [3, 16]: 112.9%
Zonarol detected in plasma [3, 16]: 22.6 ± 1.24 ng/mL
Accuracy (detected/prepared × 100) [3, 17]: 91.2%
Zonarol detected in plasma [3, 17]: 73.0 ± 1.72 ng/mL
Accuracy (detected/prepared × 100) [3, 18]: 97.2%
Zonarol detected in plasma [3, 18]: 311.1 ± 2.76 ng/mL
time zonarol remained stable in plasma ([3]; stored at 4 °C): at least 12 h
change of zonarol content in plasma ([3]; stored at RT or 37 °C for 4 h): did not change
Accuracy (detected/prepared × 100) [3, 19]: 107.9%
Zonarol detected in plasma [3, 19]: 21.6 ± 1.44 ng/mL
Accuracy (detected/prepared × 100) [3, 20]: 94.4%
Zonarol detected in plasma [3, 20]: 75.5 ± 2.38 ng/mL
Accuracy (detected/prepared × 100) [3, 21]: 101.7%
Zonarol detected in plasma [3, 21]: 325.5 ± 4.56 ng/mL
effect of three freeze–thaw cycles on quantification in plasma ([3]; three freeze–thaw cycles): no effect
plasma zonarol required to induce suppressive effects on edema formations [4]: approximately 300 ng/mL
effect on carrageenan-induced paw edema [5]: significantly suppressed
effect on DSS-induced ulcerative colitis [6]: suppressed
effect on diet-induced NAFLD (diet-induced NAFLD): prevented

fucoxanthin
bioavailability [7]: 0.06%
passage through the BBB ([8]; due to hydrophobic properties): pass through the BBB

O=c1c(O)c(-c2ccc(O)c(O)c2)oc2cc(O)cc(O)c12 [quercetin]
absolute bioavailability ([7]; variability depended on gastric contents during ingestion): 16%
accumulation in the brain ([8]; 0.1%-quercetin-containing diet for 11 weeks): did not induce the accumulation
